The record followed here is PMC7691559 (Journal of Pesticide Science, 2020).

Holding throughout (assay): spectrophotometric GST assay, nonlinear regression
Holding throughout (assay type): biochemical
Holding throughout (settings): read-out: CDNB / Km; 5 mM GSH, CDNB varied

Assay [1] has as its target T1, bmGSTu2 (Bombyx mori, UniProt A9XI30).
T1 sequence (A9XI30 1-233): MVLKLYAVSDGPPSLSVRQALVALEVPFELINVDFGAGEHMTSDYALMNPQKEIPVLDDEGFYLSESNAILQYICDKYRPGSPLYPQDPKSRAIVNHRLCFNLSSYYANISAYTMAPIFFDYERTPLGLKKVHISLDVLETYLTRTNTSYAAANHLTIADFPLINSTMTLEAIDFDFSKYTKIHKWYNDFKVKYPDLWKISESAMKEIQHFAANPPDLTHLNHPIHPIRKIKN

Assay [2] concerns the target T2, bmGSTu2 (Bombyx mori, UniProt A9XI30, P162A).
T2 sequence (A9XI30 1-233 P162A): T1 sequence (A9XI30 1-233) with P162A

Assay [3] addresses T3, bmGSTu2 (Bombyx mori, UniProt A9XI30, S166A).
T3 sequence (A9XI30 1-233 S166A): T1 sequence (A9XI30 1-233) with S166A

The target of assay [4] is T4, bmGSTu2 (Bombyx mori, UniProt A9XI30, N102A).
T4 sequence (A9XI30 1-233 N102A): T1 sequence (A9XI30 1-233) with N102A

Positions count from the first letter of the chain named.

Consider `O=[N+]([O-])c1ccc(Cl)c([N+](=O)[O-])c1` [CDNB, 1-chloro-2,4-dinitrobenzene], for which the Km at bmGSTu2 [1] came to 280 µM; on bmGSTu2 [2], 2100 µM; on bmGSTu2 [3] it was 720 µM; on bmGSTu2 [4], 940 µM.
